# Experiments:
# [1] = system: NPC cells; conditions: earlier study [5]; cited from earlier work
# [2] = system: human NPC1 3123 cells; assay: Sphingolipid transport, BODIPY-LacCer staining; assay type: cell-based; conditions: 48 hours
# Description: For filipin staining in transfected cells, cells were transfected with PKC or Rab9 using Fugene 6 according to the manufacturer's recommendations. After 48 hrs, cells were stained with filipin as we have previously described. Cells were mounted onto slides using Fluoromount-G (SouthernBiotech, Birmingham, Ala.) and analyzed on a Nikon Eclipse microscope fitted with a charge-coupled-device camera (Nikon, Melville, N.Y.). Images were acquired with MetaVue software and then deconvoluted using AutoDeblur software from AutoQuant Imaging, Inc (Troy, N.Y.). For quantitation of filipin fluorescence, cells were seeded at 3×10^5 cells/well in 6-well dishes and allowed to settle overnight, after which the medium was replaced with medium containing 10% lipoprotein deficient serum (LPDS) for 4 days. Cells were incubated with oleic/linoleic acids for 48 hours, DCPLA/DHA for 24 hrs, or diazoxide for 72 hrs before fixing and staining with filipin as we have previously described. Images were acquired using the same exposure time for all samples. Fluorescence intensity was determined using the integrated intensity function of MetaVue software; at least 150 cells were quantitated for each sample and each experiment was repeated 3 times. For analysis of sphingolipid transport, cells were incubated with oleic/linoleic acids, DCP-LA, or PMA for 48 hours before BODIPY-LacCer staining was performed as previously described.
# [3] = system: human NPC1 fibroblasts (NPC1 3123); assay: Soluble vimentin levels by Western blot after fatty acid treatment; assay type: cell-based; conditions: for soluble vimentin in NPC1 cells: discussion statement, FIG. 5, concentration not given; for levels of soluble vimentin in cell lysates: human NPC1 fibroblasts, 50 μg/ml, 48 hours (FIG. 5 legend: 24 hrs)
# Experimental: The human wild-type fibroblast (GM05387), NPClo fibroblast (GM09341), and NPC1 fibroblast (GM03123) cell lines were obtained from Coriell Cell Repositories (Camden, N.J.). The M12 Chinese hamster ovary (CHO) cell line and its wild-type parental line were obtained and cultured. Fibroblast cell lines were cultured in DMEM, and CHO cells were cultured in DMEM/F12 (50:50) medium, supplemented with 10% FBS, 2 mM L-glutamine, and 50 μg/ml gentamicin in a humidified incubator at 37° C. with 5% CO2.
# Transfected cells were harvested with PBS containing 2 mM EDTA at 2 days post-transfection. Soluble and insoluble cell fractions were prepared as described previously. Briefly, to obtain the soluble/cytoplasmic fraction, cells were incubated on ice for 30 min in cold “phospho” buffer [150 mM NaCl, 20 mM NaF, 100 μM Na3VO4, 20 mM Hepes, pH 7.5), 1% (v/v) Igepal, 10% (v/v) glycerol, and 1 μL/20 mg tissue of protease inhibitor cocktail] and then centrifuged for 20 min at 14,000 rpm at 4° C.; the clear supernatant was frozen in aliquots at a concentration of 1 μg/μl. The pellet (insoluble fraction) was washed 3 times in ice-cold PBS containing 2 mM EDTA and then resuspended in a volume of “Triton” buffer [PBS, 1% (w/v) SDS, and 0.1% (v/v) Triton X-100] equal to the “phospho” buffer. This solution was boiled for 10 min and sonicated until the solution became clear. The protein concentration of this fraction was adjusted to 1 μg/μl according to the protein concentrations determined for the soluble/cytoplasmic fraction. Protein concentrations were determined using the fluorescamine method as we have described. 4-12% Bis-Tris precast gel (Invitrogen, Carlsbad, Calif.) and then transferred onto a Protran membrane using an XCell II apparatus (Invitrogen, Carlsbad, Calif.) according to the manufacturer's instructions. Blots were processed as described previously.
# [4] = system: M12 NPC1 CHO cells; assay: Cholesterol esterification assay ([3H] oleate); assay type: cell-based, Chinese hamster; conditions: 50 μg/ml fatty acid for 2 days followed by expression of PKC ε
# Experimental: The preparation of [^3H] oleate substrate and esterification assays were performed as previously described. Cells were treated with 50 μg/ml fatty acid for 2 days and then transfected with PKE α or PKC ε for 24 hrs before esterification assays. All values were generated in triplicate and normalized for total cell protein.
# [5] = system: C57Bl6 NPC1 mice; assay: Survival of C57Bl6 NPC1 mice dosed IP twice weekly; assay type: in vivo, mouse
# Experimental: A total of […] C57Bl6 NPC1 mice, mixed sex, were used. These mice were separated into 5 groups of 5 mice each, Groups 1-5.
# Bryostatin 1 (purity≧95%) from Aphios (Woburn, Mass.), 1 vial 2 mg, was solubilized in a 5% DMSO, 20% Solutol and 75% Saline solution and used as the study drug. The negative (vehicle) control is a 5% DMSO, 20% Solutol and 75% Saline solution. DCP-LA from Sigma-Aldrich: 5 mg oil/vial was used as an additional in vitro active compound. Bryostatin 1 (API) was stored at or below −20° C. and formulated as needed. The formulated bryostatin 1 was stored at 2° to 8° C. for less than 24 hour(s). The DCP-LA and the vehicle controls were stored at 2°-8° C.
# The stock solution of bryostatin 1 is 10 mg/ml in DMSO, which is kept at −80° C. in aliquots. The dosing formulation is made by diluting the stock first in DMSO, then adding solutol, and lastly saline—with more insoluble compounds, adding the drug stock to complete vehicle will cause the compound to come out of solution, so we make formulations stepwise. The dosing volume is always 100 μl. Mice weigh approximately 20 g.
# The mice are dosed twice weekly (Mon and Thu) starting at 30 days for up to 150 days.
# C57 NPC1 mice have an average life span of ˜110 days. By Day 70 mice reach an average weight of 18-22 grams. Untreated NPC1 mice develop ataxia and will begin to lose weight at ˜70 days (see FIG. 17). Ataxia (or lack of voluntary muscle control) is a clinical feature of NPC1 mice, which may be described as shaking. Treatment will be initiated at ˜30 days of age, average NPC mouse weight of 10 g. If the drug is efficacious injections will continue past day 70-80. An extension of life of about 20-30% will mean that animals will need to be treated up to day 130-150.
# [6] = system: NPC24-SV cells; assay: Glycosphingolipid accumulation by VTB staining in NPC24-SV cells; assay type: cell-based, Human; conditions: 0.1 nM
# [7] = system: NPC24-SV cells; assay: Cholesterol accumulation by filipin staining in NPC24-SV cells; assay type: cell-based, Human
# Experimental: (§1) Cells are plated in 6-well dishes and treated with the appropriate compound (dissolved in DMSO) at the indicated dose daily for 48 hrs. Control cells receive DMSO. After 48 hrs cells are transferred to cover slips with fresh compound and grown for another 24 hrs. Cover slips are collected and processed for microscopy.
# (§2) Filipin: For detection of unesterified cholesterol in lysosomes, cells were fixed in formalin for 30 min at 4° C., washed 2×, 5 min in 0.9% NaCl, incubated for 45 min with 0.01% filipin in PBS at room temperature, and then washed 2×, 5 min. Fluorescence was observed using a Nikon Eclipse fluorescence microscope (Nikon, Melville, N.Y.) equipped with a CCD camera. Fluorescence signals were quantified using Nikon's imaging and quantitation software package NIS Elements, v. 3.22.
# [8] = system: NPC3-SV cells; assay: Stored cholesterol by filipin staining in NPC3-SV cells; assay type: cell-based, Human; conditions: for clearance of cholesterol (stored cholesterol levels): 48 h, FIG. 8
# Experimental: as §1, §2
# [9] = system: NPC3SV cells; assay type: cell-based, Human; conditions: FIG. 12, concentration not given
smiles,measurement,setting,value
"CCCCCCCCCCCCCC(=O)O[C@@H]1[C@@H](C)[C@@]2(O)[C@@H](C=C(CO)C[C@]3(O)C(=O)C(C)=C[C@@H]23)[C@@H]2C(C)(C)[C@]12OC(C)=O [PMA, phorbol-12-myristate-13-acetate]",NPC lipid storage phenotype,[1],ameliorated the NPC lipid storage phenotype
same,levels of soluble vimentin,[1],increased levels of soluble vimentin
same,BODIPY-LacCer transport to the trans-Golgi network,[2]; 100 nM,the lipid can be seen in the TGN
CCCCC/C=C\C/C=C\CCCCCCCC(=O)O [linoleic acid],BODIPY-LacCer transport to the trans-Golgi network,[2]; 2 μg/ml,the lipid can be seen in the TGN
same,soluble vimentin in NPC1 cells,[3],increase of soluble vimentin
same,levels of soluble vimentin in cell lysates,[3],significantly increases the amount of soluble vimentin
same,cholesterol esterification levels over untreated cells,[4],~3.5 fold
"CCCCCCCC/C=C\CCCCCCCC(=O)O [oleic acid, cis-9-octadecenoic acid]",BODIPY-LacCer transport to the trans-Golgi network,[2]; 2 μg/ml,the lipid can be seen in the TGN
same,soluble vimentin in NPC1 cells,[3],increase of soluble vimentin
same,levels of soluble vimentin in cell lysates,[3],significantly increases the amount of soluble vimentin
same,cholesterol esterification levels over untreated cells,[4],~3.5 fold
CCC/C=C/C=C/C(=O)O[C@H]1/C(=C/C(=O)OC)C[C@H]2C[C@H]([C@@H](C)O)OC(=O)C[C@H](O)C[C@@H]3C[C@H](OC(C)=O)C(C)(C)[C@](O)(C[C@@H]4C/C(=C/C(=O)OC)C[C@H](/C=C/C(C)(C)[C@]1(O)O2)O4)O3 [bryostatin 1],age that mice lived past,[5]; 10 μg/kg IP twice weekly from 30 days of age,> 100 days
same,age that mice lived past,[5]; 20 μg/kg IP twice weekly from 30 days of age,> 100 days
same,age that mice lived past,[5]; 30 μg/kg IP twice weekly from 30 days of age,> 100 days
same,effect in sphingolipid assay,[6],no effect
same,effect in cholesterol assay,"[7]; 0.1 nM, NPC24-SV cells",no effect
same,cholesterol clearance,"[7]; 10 nM, NPC24-SV cells, FIG. 11",able to effect cholesterol clearance
same,concentration showing a positive therapeutic effect,"[7]; human NPC1 disease cells, summary of Example 2",10 to 100 nM
same,clearance of cholesterol (stored cholesterol levels),[8],able to induce clearance of cholesterol
same,stored cholesterol levels,"[8]; 72 h, FIG. 9",activity in the nanomolar concentration range
CC1=NS(=O)(=O)c2cc(Cl)ccc2N1 [diazoxide],clearance of cholesterol (stored cholesterol levels),[8],able to induce clearance of cholesterol
"CCCCCC1CC1CC1CC1CCCCCCCC(=O)O (centres unmarked) [DCP-LA, 8-[2-(2-pentyl-cyclopropylmethyl)-cyclopropyl]-octanoic acid]",ganglioside transport block,[9],release the ganglioside transport block
same,filipin accumulation,"[7]; NPC24-SV cells, FIG. 11, concentration not given",decrease filipin accumulation
same,BODIPY-LacCer transport to the trans-Golgi network,[2]; 20 μM,the lipid can be seen in the TGN
same,soluble vimentin in NPC1 cells,[3],increase of soluble vimentin
same,clearance of cholesterol (stored cholesterol levels),[8],able to induce clearance of cholesterol
